US6506760B1, “Substituted hydrazinyl heteroaromatic inhibitors of thrombin” (Corvas International, Inc., priority 2000, dated 2003)
pIC50: −log10 of the molar value. Where two headings read alike, the source gives them in different places.

Legend:
Format in all cases: biochemical
[1] = biological target: T1, bovine pancreatic trypsin (Bos taurus, UniProt P00760); experiment: Trypsin chromogenic assay, IC50; conditions: 30 min incubation
T1 construct: bovine pancreatic trypsin was obtained from Worthington Biochemical Corp; purchased Worthington Biochemical Corp. TRL3; host or cells: bovine pancreas
T1 sequence (P00760 24-246): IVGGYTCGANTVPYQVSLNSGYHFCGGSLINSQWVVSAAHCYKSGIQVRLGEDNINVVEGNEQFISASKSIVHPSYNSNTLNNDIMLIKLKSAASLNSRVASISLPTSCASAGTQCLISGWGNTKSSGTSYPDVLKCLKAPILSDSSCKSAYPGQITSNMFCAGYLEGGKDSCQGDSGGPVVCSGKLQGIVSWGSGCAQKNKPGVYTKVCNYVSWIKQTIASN
Description: (§1) The ability of compounds of the present invention to act as a selective inhibitor of thrombin activity was assessed by determining the concentration of test-compound which inhibited the activity of this enzyme by 50%, (IC50), and comparing this value to that determined for all or some of the following related serine proteases: recombinant tissue plasminogen activator (rt-PA), plasmin, activated protein C, chymotrypsin, factor Xa and trypsin.
(§2) The buffer used for all assays was HBSA (10 mM HEPES, pH 7.5, 150 mM sodium chloride, 0.1% bovine serum albumin).
(§3) The assay for IC50 determinations was conducted by combining in appropriate wells of a Corning microtiter plate, 50 microliters of HBSA, 50 microliters of the test compound at a specified concentration (covering a broad concentration range) diluted in HBSA (or HBSA alone for V0 (uninhibited velocity) measurement), and 50 microliters of the enzyme diluted in HBSA. Following a 30 minute incubation at ambient temperature, 50 microliters of the substrate at the concentrations specified below were added to the wells, yielding a final total volume of 200 microliters. The initial velocity of chromogenic substrate hydrolysis was measured by the change in absorbance at 405 nm using a Thermo Max® Kinetic Microplate Reader over a 5 minute period in which less than 5% of the added substrate was utilized. The concentration of added inhibitor which caused a 50% decrease in the initial rate of hydrolysis was defined as the IC50 value.
Trypsin catalytic activity was determined using the chromogenic substrate, S-2222 (benzoyl-L-isoleucine-L-glutamic acid-[gamma-methyl ester]-L-arginine-p-nitroanilide), which was obtained from DiaPharma Group. […] Purified (3×-crystallized; TRL3) bovine pancreatic trypsin was obtained from Worthington Biochemical Corp. The enzyme was reconstituted in deionized water and diluted into HBSA prior to assay in which the final concentration was 0.5 nM.

human α-thrombin = human α-thrombin (Homo sapiens, UniProt P00734); experiment: Thrombin (fIIa) chromogenic assay, IC50
human plasmin = human plasmin (Homo sapiens, UniProt P00747); experiment: Plasmin chromogenic assay, IC50; conditions: 30 min incubation
Description: as §1, §2, §3
Plasmin catalytic activity was determined using the chromogenic substrate, S-2366 [L-pyroglutamyl-L-prolyl-L-arginine-p-nitroaniline hydrochloride], which was obtained from DiaPharma group. The substrate was made up in deionized water followed by dilution in HBSA prior to the assay in which the final concentration was 300 micromolar (about 2.5-times Km). Purified human plasmin was obtained from Enzyme Research Laboratories, Inc. The enzyme was diluted into HBSA prior to assay in which the final concentration was 1.0 nM.

Factor Xa = biological target: T2, Factor Xa (Homo sapiens, UniProt P00742); experiment: Factor Xa chromogenic assay, IC50; conditions: 30 min incubation; read-out: fxa IC50 (30 min)
T2 construct: purchased Enzyme Research Laboratories, Inc. (South Bend, Ind.)
Description: as §1, §2, §3
Factor Xa catalytic activity was determined using the chromogenic substrate S-2765 (N-benzyloxycarbonyl-D-arginine-L-glycine-L-arginine-p-n itroaniline ), obtained from DiaPharma Group (Franklin, Ohio). All substrates were reconstituted in deionized water prior to use. […] Purified human Factor X was obtained from Enzyme Research Laboratories, Inc. (South Bend, Ind.) and Factor Xa (FXa) was activated and prepared from it as described [Bock, P. E., Craig, P. A., Olson, S. T., and Singh, P. Arch, Biochem. Biophys, 273:375-388 (1989)]. The enzyme was diluted into HBSA prior to assay in which the final concentration was 0.25 nM.

[2] = 0 min incubation of enzyme with inhibitor, read-out: fIIa IC50 (0 min)
[3] = 30 min incubation of enzyme with inhibitor, read-out: fIIa IC50 (30 min)

Chain of human plasmin (P00747 581-810 limits assumed): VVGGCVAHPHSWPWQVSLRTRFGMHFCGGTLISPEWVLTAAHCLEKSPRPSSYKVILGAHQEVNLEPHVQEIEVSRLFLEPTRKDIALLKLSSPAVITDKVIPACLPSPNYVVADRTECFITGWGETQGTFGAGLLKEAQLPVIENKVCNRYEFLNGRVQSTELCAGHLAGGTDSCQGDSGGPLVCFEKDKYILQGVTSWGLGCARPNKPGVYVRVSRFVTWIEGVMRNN
Chain of human plasmin (P00747 97-580 partner limits assumed): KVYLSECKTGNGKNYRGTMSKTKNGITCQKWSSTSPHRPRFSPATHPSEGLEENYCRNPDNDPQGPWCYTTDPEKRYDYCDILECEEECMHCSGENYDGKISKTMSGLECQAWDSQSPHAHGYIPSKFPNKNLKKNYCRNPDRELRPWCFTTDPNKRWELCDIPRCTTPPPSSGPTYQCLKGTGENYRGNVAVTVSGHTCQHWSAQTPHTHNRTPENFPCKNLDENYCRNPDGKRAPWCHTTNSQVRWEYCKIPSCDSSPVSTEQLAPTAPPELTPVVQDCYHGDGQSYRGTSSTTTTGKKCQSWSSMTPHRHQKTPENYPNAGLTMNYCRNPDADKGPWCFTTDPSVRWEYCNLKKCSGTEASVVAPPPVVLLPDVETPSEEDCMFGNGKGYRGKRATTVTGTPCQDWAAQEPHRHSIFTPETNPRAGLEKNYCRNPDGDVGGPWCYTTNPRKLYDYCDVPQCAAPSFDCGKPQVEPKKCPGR
T2 sequence (P00742 235-488 limits assumed): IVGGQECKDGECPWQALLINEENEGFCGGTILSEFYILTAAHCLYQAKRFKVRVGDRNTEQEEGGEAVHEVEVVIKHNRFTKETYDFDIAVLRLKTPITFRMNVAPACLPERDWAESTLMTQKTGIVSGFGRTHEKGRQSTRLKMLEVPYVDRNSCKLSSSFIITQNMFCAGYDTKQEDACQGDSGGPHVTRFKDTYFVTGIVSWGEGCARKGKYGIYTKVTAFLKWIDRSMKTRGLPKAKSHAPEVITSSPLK
T2 sequence (P00742 41-179 partner limits assumed): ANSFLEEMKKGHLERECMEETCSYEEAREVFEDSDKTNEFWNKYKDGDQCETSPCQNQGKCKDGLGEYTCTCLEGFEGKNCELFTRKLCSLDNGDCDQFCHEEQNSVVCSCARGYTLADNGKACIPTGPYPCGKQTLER

| Compound | pIC50 [1] | pIC50 (human α-thrombin; [2]) | pIC50 (human α-thrombin; [3]) | pIC50 (human plasmin) | pIC50 (Factor Xa) |
| --- | --- | --- | --- | --- | --- |
| 1-[5-(2-Amino-6-methylpyridyl)methylcarboxamidomethyl]-3-[2-(2-chlorobenzenesulfonyl)hydrazino]-6-methylpyrazinone, Hydrotrifluoroacetate [Example 53] | 4.00 to 5.60 | ≥ 7.00 | ≥ 7.00 | ≤ 4.00 | 4.00 to 5.60 |
| 1-[5-(2-Amino-6-methylpyridyl)methylcarboxamidomethyl]-3-[2-(4-chlorobenzenesulfonyl)hydrazino]-6-methylpyrazinone, Hydrotrifluoroacetate [Example 55] | ≤ 4.00 | ≥ 7.00 | ≥ 7.00 | ≤ 4.00 | ≤ 4.00 |
| Cc1nc(N)ccc1CNC(=O)Cn1c(C)cnc(NNC(=O)Cc2ccccc2)c1=O [Example 12, 1-[5-(2-Amino-6-methylpyridyl)methylcarboxamidomeyhyl-]6-methyl-3-(2-phenylacetylhydrazino)pyrazinone, Hydrotrifluoroacetate] | ≤ 4.00 | ≥ 7.00 | ≥ 7.00 | 4.00 to 5.60 | ≤ 4.00 |
| Cc1nc(N)ccc1CNC(=O)Cn1c(C)cnc(NNS(=O)(=O)c2ccccc2)c1=O [Example 22, 1-[5-(2-Amino-6-methylpyridyl)methylcarboxamidomethyl]-6-methyl-3-(2-phenylsulfonylhydrazino)pyrazinone, Hydrotrifluoroacetate] | 4.00 to 5.60 | ≥ 7.00 | ≥ 7.00 | ≤ 4.00 | ≤ 4.00 |
| Cc1nc(N)ccc1CNC(=O)Cn1c(C)cnc(NNC(=O)OCc2ccccc2Cl)c1=O [Example 24, 1-[5-(2-Amino-6-methylpyridyl)methylcarboxamidomethyl]-3-[2-(2-chlorobenzyloxycarbonyl)hydrazino]-6-methylpyrazinone, Hydrotrifluoroacetate] | 4.00 to 5.60 | ≥ 7.00 | ≥ 7.00 | ≤ 4.00 | ≤ 4.00 |
| C=CCOC(=O)NNc1ncc(C)n(CC(=O)NCc2ccc(N)nc2C)c1=O [Example 25, 3-(2-Allyloxycarbonylhydrazino)-1-[5-(2-amino-6-methylpyridyl)methylcarboxamidomethyl]-6-methylpyrazinone, Hydrotrifluoroacetate] | ≤ 4.00 | ≥ 7.00 | ≥ 7.00 | ≤ 4.00 | ≤ 4.00 |
| C=CCCOC(=O)NNc1ncc(C)n(CC(=O)NCc2ccc(N)nc2C)c1=O [Example 28, 1-[5-(2-Amino-6-methylpyridyl)methylcarboxamidomethyl]-3-[2-(3-butenyloxycarbonyl)hydrazino]-6-methylpyrazinone, Hydrotrifluoroacetate] | ≤ 4.00 | ≥ 7.00 | ≥ 7.00 | ≤ 4.00 | 4.00 to 5.60 |
| C#CCOC(=O)NNc1ncc(C)n(CC(=O)NCc2ccc(N)nc2C)c1=O [Example 30, 1-[5-(2-Amino-6-methylpyridyl)methylcarboxamidomethyl]-6-methyl-3-(2-propargyloxycarbonylhydrazino)pyrazinone, Hydrotrifluoroacetate] | ≤ 4.00 | ≥ 7.00 | ≥ 7.00 | ≤ 4.00 | ≤ 4.00 |
| Cc1nc(N)ccc1CNC(=O)Cn1c(C)cnc(NNC(=O)OCC(C)(C)C)c1=O [Example 31, 1-[5-(2-Amino-6-methylpyridyl)methylcarboxamidomeyhyl-]6-methyl-3-(2-neopentyloxycarbonylhydrazino)pyrazinone, Hydrotrifluoroacetate] | 4.00 to 5.60 | ≥ 7.00 | ≥ 7.00 | ≤ 4.00 | ≤ 4.00 |
| Cc1nc(N)ccc1CNC(=O)Cn1c(C)cnc(NNC(=O)OCc2ccccc2Cl)c1=O [Example 32, 1-[5-(2-Amino-6-methylpyridyl)methylcarboxamidomethyl]-3-[2-(2-chlorobenzyloxycarbonyl)hydrazino]-6-methylpyrazinone, Hydrotrifluoroacetate] | ≤ 4.00 | ≥ 7.00 | ≥ 7.00 | 4.00 to 5.60 | ≤ 4.00 |
| Cc1nc(N)ccc1CNC(=O)Cn1c(C)cnc(NNC(=O)NCc2ccc(Cl)cc2)c1=O [Example 37, 1-[5-(2-Amino-6-methylpyridyl)methylcarboxamidomethyl]-3-[2-(4-chlorobenzylcarbamyl)hydrazino]-6-methylpyrazinone, Hydrotrifluoroacetate] | ≤ 4.00 | ≥ 7.00 | ≥ 7.00 | ≤ 4.00 | ≤ 4.00 |
| Cc1nc(N)ccc1CNC(=O)Cn1c(C)cnc(NNS(=O)(=O)c2ccccc2C(F)(F)F)c1=O [Example 45, 1-[5-(2-Amino-6-methylpyridyl)methylcarboxamidomethyl]-6-methyl-3-[2-(2-trifluoromethylbenzenesulfonyl)hydrazino]pyrazinone, Hydrotrifluoroacetate] | ≤ 4.00 | ≥ 7.00 | ≥ 7.00 | ≤ 4.00 | 4.00 to 5.60 |
| COc1ccccc1CNC(=O)NNc1ncc(C)n(CC(=O)NCc2ccc(N)nc2C)c1=O [Example 48, 1-[5-(2-Amino-6-methylpyridyl)methylcarboxamidomethyl]-3-[2-(2-methoxybenzylcarbamyl)hydrazino]-6-methylpyrazinone, Hydrotrifluoroacetate] | ≤ 4.00 | ≥ 7.00 | ≥ 7.00 | ≤ 4.00 | ≤ 4.00 |
| Cc1nc(N)ccc1CNC(=O)Cn1c(C)cnc(NNC(=O)NCc2ccc3c(c2)OCO3)c1=O [Example 49, 1-[5-(2-Amino-6-methylpyridyl)methylcarboxamidomethyl]-6-methyl-3-(2-piperonylcarbamylhydrazino)pyrazinone, Hydrotrifluoroacetate] | ≤ 4.00 | ≥ 7.00 | ≥ 7.00 | ≤ 4.00 | ≤ 4.00 |
| Cc1nc(N)ccc1CNC(=O)Cn1c(C)cnc(NNC(=O)NCCC(C)(C)C)c1=O [Example 50, 1-[5-(2-Amino-6-methylpyridyl)methylcarboxamidomethyl]-6-methyl-3-[2-(3,3-dimethylbutylcarbamyl)hydrazino]pyrazinone, Hydrotrifluoroacetate] | 4.00 to 5.60 | ≥ 7.00 | ≥ 7.00 | ≤ 4.00 | 4.00 to 5.60 |
| Cc1nc(N)ccc1CNC(=O)Cn1c(C)cnc(NNS(=O)(=O)c2ccccc2F)c1=O [Example 54, 1-[5-(2-Amino-6-methylpyridyl)methylcarboxamidomethyl]-3-[2-(2-fluorobenzenesulfonyl)hydrazino]-6-methyl pyrazinone, Hydrotrifluoroacetate] | ≤ 4.00 | ≥ 7.00 | ≥ 7.00 | ≤ 4.00 | ≤ 4.00 |
| COc1ccc(S(=O)(=O)NNc2ncc(C)n(CC(=O)NCc3ccc(N)nc3C)c2=O)cc1 [Example 57] | ≤ 4.00 | ≥ 7.00 | ≥ 7.00 | ≤ 4.00 | 4.00 to 5.60 |
| C#CCOC(=O)N(CC)Nc1ncc(C)n(CC(=O)NCc2ccc(N)nc2C)c1=O [Example 58, 1-[5-(2-Amino-6-methylpyridyl)methylcarboxamidomeyhyl-]3-[2-ethyl-2-(propargyloxycarbonyl)hydrazino]-6-methylpyrazinone, Hydrotrifluoroacetate] | ≤ 4.00 | ≥ 7.00 | ≥ 7.00 | ≤ 4.00 | ≤ 4.00 |
